This passage reports IC50 results from patent US20250361234A1 (NICO THERAPEUTICS, INC., priority 2022, published 2025).

The target in the assay is T1, full-length SARM1 (FL-SARM1) (Homo sapiens, UniProt Q6SZW1).
T1 sequence (Q6SZW1 28-724): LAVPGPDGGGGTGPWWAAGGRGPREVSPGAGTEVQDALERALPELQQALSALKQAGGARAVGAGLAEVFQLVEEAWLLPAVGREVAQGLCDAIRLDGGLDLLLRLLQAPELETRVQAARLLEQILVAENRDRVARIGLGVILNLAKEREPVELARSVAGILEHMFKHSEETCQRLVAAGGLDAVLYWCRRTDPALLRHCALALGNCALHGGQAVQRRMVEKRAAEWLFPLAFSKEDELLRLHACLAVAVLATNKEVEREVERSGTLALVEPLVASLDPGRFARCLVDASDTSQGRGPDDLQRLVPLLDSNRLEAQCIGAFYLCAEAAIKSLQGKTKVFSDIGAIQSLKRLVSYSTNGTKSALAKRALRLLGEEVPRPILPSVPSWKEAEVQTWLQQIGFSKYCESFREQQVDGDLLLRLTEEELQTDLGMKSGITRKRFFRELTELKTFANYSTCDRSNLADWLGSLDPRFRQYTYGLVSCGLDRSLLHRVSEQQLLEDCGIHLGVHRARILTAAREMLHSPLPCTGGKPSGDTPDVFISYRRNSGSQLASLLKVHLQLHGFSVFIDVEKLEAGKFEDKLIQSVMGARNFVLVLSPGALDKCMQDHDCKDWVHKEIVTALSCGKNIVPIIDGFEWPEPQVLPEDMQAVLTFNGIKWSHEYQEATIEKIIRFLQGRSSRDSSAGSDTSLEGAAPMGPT
Description: FL-SARM1 cellular lysate assay (NAD/NADH-Glo readout of remaining NAD+). The note with it: SARM1 cellular lysate from transfected HEK293T cells, NAD+ and NMN, 11 point curve.

Each structure is given as a SMILES string. Some results are limits rather than exact numbers.

Description: Preparation of full-length SARM1 (FL-SARM1) lysate: HEK293T cells (ATCC: CRL-3216) were grown on 150 mm TC-treated dishes to 80-90% confluency in complete DMEM (Thermo Fisher: 11965175) supplemented with 10% HI-FBS (VWR: 10802-772), 1× Pen/Strep (Thermo Fisher: 15140122), 1× NEAA (Thermo Fisher: 1140050), 1× glutamax (Thermo Fisher: 35050061), and 1 mM sodium pyruvate (Thermo Fisher: 11360070)) at 37° C. and 5% CO2. One hour prior to transfection, the media was replaced with fresh, 37° C. complete DMEM (20 mL per one 150 mm dish) supplemented with additional 10 mM glucose (Alfa Aesar AAJ60067EQE). Per one 150 mm dish, 30 μg FL-SARM1 (SEQ. ID. 1; cloned in-house) plasmid was dissolved in 1 mL DMEM at ambient temperature and were mixed by inverting the tube 8-10 times. 90 μL of GenJet™ in vitro DNA transfection reagent (Ver2) was dissolved in 1 mL DMEM at ambient temperature and were mixed by inverting the tube 8-10 times. The plasmid and transfection agent solutions were combined, mixed by 8-10 inversions and incubated for 10 minutes at ambient temperature. 2 mL of this transfection mixture was added to each dish containing HEK293T cells as prepared above followed by a gentle mixing of 4-5 horizontal rotations. The dishes were incubated at 37° C. and 5% CO2 for 24 h. The dishes were removed from the incubator, the medium was aspirated and the cells were scraped off using cell scrapers in ice-cold 1× PBS (5 mL/dish, Thermo Fisher Scientific 10010023). The collected cells were centrifuged at 300 g for 5 minutes at 4° C. The supernatant was aspirated and the pellet was frozen at −80° C. until needed. The cell pellet from 30 dishes was dissolved in 30 mL 1× PBS supplemented with 4 tablets of Complete, Mini EDTA-free protease inhibitor cocktail at 4° C. This mixture was sonicated on ice for 10 minutes at 50% amplitude with a 1 second on/1 second off interval using a Model 120 sonicator (Thermo Fisher Scientific, FB120110). The lysate was centrifuged at 16000 g for 10 minutes at 4° C.
To a white 384-well Proxiplate (PerkinElmer, PE-6008280) was added 50 nL/well of a DMSO solution containing test compounds followed by 7.5 mL/well of a 0.067 mg/mL solution of SARM1 cellular lysate in reaction buffer (DPBS containing CHAPSO (0.1%) and fatty acid free BSA (0.032%)). The plate was centrifuged for 1 minute at 1000 RPM and then placed in an incubator at 23° C. for 15 minutes. To the wells were added 2.5 mL/well of a solution containing 40 mM NAD^+ and 4 mM NMN in reaction buffer. The plate was centrifuged for 1 min at 1000 RPM, the plate was sealed and placed in an incubator at 23° C. for 3.5 hours before adding 3.5 mL/well of NAD/NADH-Glo™ solution (preparation as described by Promega using the extended detection protocol). The plate was centrifuged for 1 minute at 1000 RPM and then incubated at 23° C. for 20 minutes. 1 mL/well of a 3.625 mM solution of menadione in DMSO was added and the plate was centrifuged for 1 minute at 1000 RPM. […] Percent inhibition was calculated as follows:
IC50 values were calculated from an 11 point curve using ½ log dilutions using a four-parameter logistic regression curve fit.

For `C[C@H]1CC2C[C@@H](C1)N2C(=O)Nc1ccc(Cl)c(-c2cncc(F)c2)c1` (single isomer, unassigned) [Example 80, cis-N-(4-chloro-3-(5-fluoropyridin-3-yl)phenyl)-3-methyl-6-azabicyclo[3.1.1]heptane-6-carboxamide], half-maximal inhibition (Activity (μM)) (IC50) required 0.07 µM and the IC50 (usually the concentration that inhibits the measured activity by half) (Activity) was in the range of 0.0001 to 1 µM.
The matching figures for `Cc1ccc(NC(=O)N2CC[C@@H](C)C[C@H]2C)cc1-c1cncc(F)c1` (racemic) [Example 119, cis-N-(3-(5-fluoropyridin-3-yl)-4-methylphenyl)-2,4-dimethylpiperidine-1-carboxamide]: 1.1 µM and 1 to 10 µM.
In the same order, the values of `Cc1ccc(NC(=O)N2C3CCCC2C3)cc1-c1cncc(OC(F)F)c1` [Example 48, N-(3-(5-(difluoromethoxy)pyridin-3-yl)-4-methylphenyl)-6-azabicyclo[3.1.1]heptane-6-carboxamide] are 0.1 µM and 0.0001 to 1 µM.
In the same order, the values of `Cc1nnc([C@]23C[C@H](C)C[C@H](C2)N3C(=O)Nc2cc(-c3cncc(F)c3)c(C)cc2F)o1` (single isomer, unassigned) [Example 124, cis-N-(2-fluoro-5-(5-fluoropyridin-3-yl)-4-methylphenyl)-3-methyl-1-(5-methyl-1,3,4-oxadiazol-2-yl)-6-azabicyclo[3.1.1]heptane-6-carboxamide] are 5.5 µM and 1 to 10 µM.
With `Cc1ccc(NC(=O)N2C3C[C@@H]2C[C@@H](C(C)(C)O)C3)cc1-c1cncc(F)c1` [Example 14, trans-N-(3-(5-fluoropyridin-3-yl)-4-methylphenyl)-3-(2-hydroxypropan-2-yl)-6-azabicyclo[3.1.1]heptane-6-carboxamide], the IC50 reads like this: (Activity (μM)) 23.9 µM; (Activity) over 10 µM.
The matching figures for `COC(=O)[C@H]1CCC2C[C@@H]1N2C(=O)Nc1ccc(C)c(-c2cncc(F)c2)c1` [Example 40, cis-methyl 6-((3-(5-fluoropyridin-3-yl)-4-methylphenyl)carbamoyl)-6-azabicyclo[3.1.1]heptane-2-carboxylate]: 20.9 µM and over 10 µM.
In the same order, the values of `Cc1ccc(NC(=O)N2C3C[C@H]2C[C@@H](C(C)(C)O)C3)cc1-c1cncc(F)c1` [Example 9, cis-N-(3-(5-fluoropyridin-3-yl)-4-methylphenyl)-3-(2-hydroxypropan-2-yl)-6-azabicyclo[3.1.1]heptane-6-carboxamide] are 4.2 µM and 1 to 10 µM.
In the same order, the values of `Cc1nnc([C@]23C[C@H](C)C[C@H](C2)N3C(=O)Nc2ccc(C(F)(F)F)c(-c3cncc(F)c3)c2)o1` (single isomer, unassigned) [Example 120, cis-N-(3-(5-fluoropyridin-3-yl)-4-(trifluoromethyl)phenyl)-3-methyl-1-(5-methyl-1,3,4-oxadiazol-2-yl)-6-azabicyclo[3.1.1]heptane-6-carboxamide] are over 50 µM and over 10 µM.
Take `CO[C@H]1CC2C[C@H](C1)N2C(=O)Nc1cc(-c2cncc(F)c2)c(C)cc1F` [Example 3, trans-N-(2-fluoro-5-(5-fluoropyridin-3-yl)-4-methylphenyl)-3-methoxy-6-azabicyclo[3.1.1]heptane-6-carboxamide]: the IC50 is, setting by setting: (Activity (μM)) 2.5 µM; (Activity) 1 to 10 µM.
The matching figures for `Cc1ccc(NC(=O)OC2CCC2)cc1-c1cccnc1` [Example 129, cyclobutyl N-(4-methyl-3-pyridin-3-ylphenyl)carbamate]: 30.9 µM and over 10 µM.
In the same order, the values of `Cc1ccc(NC(=O)N2CCCCC2C)cc1-c1cncc(F)c1` (racemic) [Example 32, N-(3-(5-fluoropyridin-3-yl)-4-methylphenyl)-2-methylpiperidine-1-carboxamide] are 1.9 µM and 1 to 10 µM.
In the same order, the values of `Cc1ccc(NC(=O)[C@H]2C[C@H](C3CC3)C2)cc1-c1cncc(F)c1` [Example 108, trans-3-cyclopropyl-N-[3-(5-fluoropyridin-3-yl)-4-methylphenyl]cyclobutane-1-carboxamide] are 5.3 µM and 1 to 10 µM.
As for `C[C@@H]1CC2C[C@@H](C1)N2C(=O)Nc1ccc(C(F)(F)F)c(-c2cncc(F)c2)c1` (single isomer, unassigned) [Example 52, trans-N-(3-(5-fluoropyridin-3-yl)-4-(trifluoromethyl)phenyl)-3-methyl-6-azabicyclo[3.1.1]heptane-6-carboxamide], 0.08 µM corresponded to half-maximal inhibition (Activity (μM)) (IC50) and the IC50 (Activity) lay within 0.0001 to 1 µM.
The matching figures for `Cc1ccc(NC(=O)N2C3CC[C@H](C(=O)N(C)C)[C@@H]2C3)cc1-c1cncc(F)c1` [Example 33, cis-N^6-(3-(5-fluoropyridin-3-yl)-4-methylphenyl)-N^2,N^2-dimethyl-6-azabicyclo[3.1.1]heptane-2,6-dicarboxamide]: 32.9 µM and over 10 µM.
As for `Cc1ccc(NC(=O)N2C3C[C@@H](C(F)F)C[C@@H]2C3)cc1-c1cncc(F)c1` [Example 4, trans-3-(difluoromethyl)-N-(3-(5-fluoropyridin-3-yl)-4-methylphenyl)-6-azabicyclo[3.1.1]heptane-6-carboxamide], the IC50 was 0.1 µM (Activity (μM)) and 0.0001 to 1 µM (Activity).
The matching figures for `Cc1ccc(NC(=O)N2C3CCCC2C3)cc1-c1cccnc1C#N` [Example 61, N-[3-(2-cyanopyridin-3-yl)-4-methylphenyl]-6-azabicyclo[3.1.1]heptane-6-carboxamide]: 0.8 µM and 0.0001 to 1 µM.
Regarding `Cc1ccc(NC(=O)N2C3CCCC2C3)cc1-c1cnc(C)c(F)c1` [Example 89, N-(3-(5-fluoro-6-methylpyridin-3-yl)-4-methylphenyl)-6-azabicyclo[3.1.1]heptane-6-carboxamide], the IC50 reads like this: (Activity (μM)) 0.4 µM; (Activity) 0.0001 to 1 µM.
In the same order, the values of `Cc1nnc(C23CCCC(C2)N3C(=O)Nc2ccc(C)c(-c3cncc(F)c3)c2)o1` (stereo not shown) [Example 98, N-[3-(5-fluoro-3-pyridyl)-4-methyl-phenyl]-1-(5-methyl-1,3,4-oxadiazol-2-yl)-6-azabicyclo[3.1.1]heptane-6-carboxamide] are 0.2 µM and 0.0001 to 1 µM.
With `CCO[C@H]1CC2C[C@H](C1)N2C(=O)Nc1ccc(C)c(-c2cncc(F)c2)c1` [Example 39, trans-3-ethoxy-N-(3-(5-fluoropyridin-3-yl)-4-methylphenyl)-6-azabicyclo[3.1.1]heptane-6-carboxamide], the IC50 (Activity (μM)) was 8.3 µM and the IC50 (Activity) is 1 to 10 µM.
The matching figures for `CCc1ccc(NC(=O)N2[C@@H]3C[C@@H](C)C[C@H]2C3)cc1-c1cncc(F)c1` [Example 82, cis-N-(4-ethyl-3-(5-fluoropyridin-3-yl)phenyl)-3-methyl-6-azabicyclo[3.1.1]heptane-6-carboxamide]: 0.02 µM and 0.0001 to 1 µM.
As to `Cc1nnc([C@]23C[C@H](C)C[C@H](C2)N3C(=O)Nc2ccc(C)c(-c3cncc(F)c3)c2)o1` (single isomer, unassigned) [Example 127, cis-N-(3-(5-fluoropyridin-3-yl)-4-methylphenyl)-3-methyl-1-(5-methyl-1,3,4-oxadiazol-2-yl)-6-azabicyclo[3.1.1]heptane-6-carboxamide], the midpoint of inhibition (Activity (μM)), the IC50, lay at 0.01 µM and the IC50 (Activity) was 0.0001 to 1 µM.
The matching figures for `Cc1ccc(NC(=O)N2C3C[C@@H]2C[C@H](n2cccn2)C3)cc1-c1cncc(F)c1` [Example 27, cis-N-(3-(5-fluoropyridin-3-yl)-4-methylphenyl)-3-(1H-pyrazol-1-yl)-6-azabicyclo[3.1.1]heptane-6-carboxamide]: 14.1 µM and over 10 µM.
In the same order, the values of `Cc1ccc(NC(=O)N2C[C@@H]3C[C@H]2C[C@H]3OC(F)F)cc1-c1cncc(F)c1` (racemic) [Example 31, cis-5-(difluoromethoxy)-N-(3-(5-fluoropyridin-3-yl)-4-methylphenyl)-2-azabicyclo[2.2.1]heptane-2-carboxamide] are 28.6 µM and over 10 µM.
In the same order, the values of `Cc1ccc(NC(=O)CC2CCC2)cc1-c1cccnc1` [Example 114, 2-cyclobutyl-N-(4-methyl-3-pyridin-3-ylphenyl)acetamide] are 4.3 µM and 1 to 10 µM.
As to `Cc1ccc(NC(=O)CC2CCC2)cc1-c1cncnc1` [Example 118, 2-cyclobutyl-N-(4-methyl-3-pyrimidin-5-ylphenyl)acetamide], the IC50 is 13.9 µM (Activity (μM)) and over 10 µM (Activity).
As to `O=C(Nc1ccc(CC(F)F)c(-c2cncc(F)c2)c1)N1C2CCCC1C2` [Example 23, N-(4-(2,2-difluoroethyl)-3-(5-fluoropyridin-3-yl)phenyl)-6-azabicyclo[3.1.1]heptane-6-carboxamide], the IC50 is 0.9 µM (Activity (μM)) and 0.0001 to 1 µM (Activity).
